Columns and labels:
[1] = tested on: intrinsic system; assay: Activated Partial Thromboplastin Time (aPTT or PTT) in dog blood after IV or IT anticoagulant; type: in vivo; settings: for PTT CS: Coronary Sinus; for PTT LA: Left Atrium
Protocol: (§1) To assess the efficacy of anticoagulants delivered via intratracheal (IT) inhalation, four different anticoagulants were tested in a dog study.
(§2) PK as well as biomarkers of blood in the Left Atrium (LA) and Coronary Sinus (CS) were monitored. These locations were chosen as these are the sites whereby clot formation occurs that leads to Myocardial Infarction or results in stroke.
(§3) These drugs and doses were selected to represent a wide spectrum of anticoagulant classes. One anticoagulant was tested in one dog on each arm of this study.
(§4) Factor Xa inhibition; Prothrombin Time (PT): measures the integrity of the extrinsic system as well as factors common to both systems; and Activated Partial Thromboplastin Time (aPTT or PTT): measures the integrity of the intrinsic system and the common components and factor-Xa inhibition.
(§5) Measurements were performed in the blood collected from Left Atrium (LA) and in the Coronary sinus (CS)—the targets for stroke prevention and Myocardial Infarction (MI), respectively.

[2] = Inhaled anticoagulant in heart transplant patient (Example 8); type: in vivo, human; settings: patient undergoing heart transplant
Protocol: Inhaled anticoagulant (e.g. Argatroban) will be administered to a patient undergoing heart transplant to target the heart to reach an anti-coagulated state. In this example, a dose of 0.1 to 150 mg/kg can be sufficient to achieve an anti-coagulated state in 30 minutes.

[3] = tested on: intrinsic pathway; assay: Activated clotting time (ACT) in dog blood after IV or IT anticoagulant; type: in vivo; settings: for ACT LA: Left Atrium
Protocol: To assess the efficacy of anticoagulants delivered via intratracheal (IT) inhalation, four different anticoagulants were tested in a dog study. PK as well as biomarkers of blood in the Left Atrium (LA) and Coronary Sinus (CS) were monitored. These locations were chosen as these are the sites whereby clot formation occurs that leads to Myocardial Infarction or results in stroke. These drugs and doses were selected to represent a wide spectrum of anticoagulant classes. One anticoagulant was tested in one dog on each arm of this study. Activated clotting time (ACT), measures the time in seconds needed for whole blood to clot upon exposure to an activator of an intrinsic pathway by the addition of such as factor XII activators. Measurements were performed in the blood collected from Left Atrium (LA) and in the Coronary sinus (CS)—the targets for stroke prevention and Myocardial Infarction (MI), respectively.

[4] = Inhaled anticoagulant in patient undergoing heart valve replacement (Example 6); type: in vivo, human
Protocol: Inhaled anticoagulant (e.g. Argatroban) will be administered to a patient undergoing heart valve replacement to target the heart to reach an anti-coagulated state. In this example, a dose of 0.1 to 150 mg/kg can be sufficient to achieve an anti-coagulated state in 30 minutes.

[5] = Inhaled anticoagulant in Myocardial Infarction patient (Example 4); type: in vivo, human
From the text: Inhaled anticoagulant (e.g. Argatroban) will be administered (e.g., self-administered) to a patient suffering a Myocardial Infarction (MI) early to ensure that the patient is in an anti-coagulated state by the time the patient arrives at the hospital or point of care. This will facilitate further interventions, for which an anti-coagulated state is important.

[6] = tested on: extrinsic system; assay: Prothrombin Time (PT) in dog blood after IV or IT anticoagulant; type: in vivo; settings: for PT CS / PTCS: Coronary Sinus; for PT LA: Left Atrium
Protocol: as §1, §2, §3, §4, §5

[7] = cited from earlier work
[8] = in vivo; cited from earlier work
[9] = IV Argatroban 3 mg, 0 min (baseline)
[10] = T Argatroban 5 mg, 0 min (baseline)

CC1CNc2c(cccc2S(=O)(=O)N[C@@H](CCCNC(=N)N)C(=O)N2CC[C@@H](C)C[C@@H]2C(=O)O)C1 (some centres unmarked) [Argatroban]
effect on aPTT ([1]; IT (inhaled)): very marginal spikes
effect on aPTT ([1]; IV): prolonged
PTT CS [1, 9]: 20.9 s
PTT CS ([1]; IV Argatroban 3 mg, 3 min): 20 s
PTT CS ([1]; IV Argatroban 3 mg, 15 min): 33.8 s
PTT CS ([1]; IV Argatroban 3 mg, 60 min): 24.9 s
PTT LA [1, 9]: 48.2 s
PTT LA ([1]; IV Argatroban 3 mg, 1 min): 41.5 s
PTT LA ([1]; IV Argatroban 3 mg, 3 min): 29.5 s
PTT LA ([1]; IV Argatroban 3 mg, 5 min): 23.4 s
PTT LA ([1]; IV Argatroban 3 mg, 10 min): 20.9 s
PTT LA ([1]; IV Argatroban 3 mg, 15 min): 25.1 s
PTT LA ([1]; IV Argatroban 3 mg, 30 min): 12.2 s
PTT LA ([1]; IV Argatroban 3 mg, 60 min): 9.8 s
PTT LA ([1]; IV Argatroban 3 mg, 120 min): 49.3 s
PTT CS [1, 10]: 16.1 s
PTT CS ([1]; T Argatroban 5 mg, 3 min): 18.4 s
PTT CS ([1]; T Argatroban 5 mg, 15 min): 9.5 s
PTT CS ([1]; T Argatroban 5 mg, 60 min): 40.3 s
PTT LA [1, 10]: 13.3 s
PTT LA ([1]; T Argatroban 5 mg, 1 min): 12.5 s
PTT LA ([1]; T Argatroban 5 mg, 3 min): 17.7 s
PTT LA ([1]; T Argatroban 5 mg, 5 min): 17.2 s
PTT LA ([1]; T Argatroban 5 mg, 10 min): 20.1 s
PTT LA ([1]; T Argatroban 5 mg, 15 min): 17.8 s
PTT LA ([1]; T Argatroban 5 mg, 30 min): 13.2 s
PTT LA ([1]; T Argatroban 5 mg, 60 min): 11.1 s
PTT LA ([1]; T Argatroban 5 mg, 120 min): 10.4 s
return to a normal coagulation state after initiating the administration ([2]; inhaled): 3 h
time to achieve an anti-coagulated state ([2]; inhaled 0.1 to 150 mg/kg): 30 min
time in which ACT returns to base line [3]: 2 h
increase of ACT above baseline ([3]; IT): ≤ 3.2 fold
time in which IT prolonged the ACT ([3]; IT): 15 to 30 min
effect on ACT ([3]; IT (inhaled)): increased and prolonged ACT
effect on ACT ([3]; IV): prolonged
ACT LA [3, 9]: 101 s
ACT LA ([3]; IV Argatroban 3 mg, 1 min): 535 s
ACT LA ([3]; IV Argatroban 3 mg, 3 min): 1000 s
ACT LA ([3]; IV Argatroban 3 mg, 5 min): 489 s
ACT LA ([3]; IV Argatroban 3 mg, 10 min): 326 s
ACT LA ([3]; IV Argatroban 3 mg, 15 min): 264 s
ACT LA ([3]; IV Argatroban 3 mg, 30 min): 185 s
ACT LA ([3]; IV Argatroban 3 mg, 60 min): 140 s
ACT LA ([3]; IV Argatroban 3 mg, 120 min): 107 s
ACT LA [3, 10]: 84 s
ACT LA ([3]; T Argatroban 5 mg, 1 min): 89 s
ACT LA ([3]; T Argatroban 5 mg, 3 min): 73 s
ACT LA ([3]; T Argatroban 5 mg, 5 min): 106 s
ACT LA ([3]; T Argatroban 5 mg, 10 min): 135 s
ACT LA ([3]; T Argatroban 5 mg, 15 min): 180 s
ACT LA ([3]; T Argatroban 5 mg, 30 min): 259 s
ACT LA ([3]; T Argatroban 5 mg, 60 min): 180 s
ACT LA ([3]; T Argatroban 5 mg, 120 min): 129 s
return to a normal coagulation state after initiating the administration ([4]; inhaled): 3 h
time to achieve an anti-coagulated state ([4]; inhaled 0.1 to 150 mg/kg): 30 min
time to achieve an anti-coagulated state ([5]; patient suffering Myocardial Infarction, inhaled 0.1 to 150 mg/kg): 30 min
return to a normal coagulation state after initiating the administration ([5]; patient suspected of Myocardial Infarction, inhaled): 3 h
effect on PT ([6]; IT (inhaled)): very marginal spikes
effect on PT ([6]; IV): prolonged
PT CS [6, 9]: 6.5 s
PT CS ([6]; IV Argatroban 3 mg, 3 min): 33.7 s
PT CS ([6]; IV Argatroban 3 mg, 15 min): 20.2 s
PT CS ([6]; IV Argatroban 3 mg, 60 min): 8.6 s
PT LA [6, 9]: 9.1 s
PT LA ([6]; IV Argatroban 3 mg, 1 min): 44.3 s
PT LA ([6]; IV Argatroban 3 mg, 3 min): 36.3 s
PT LA ([6]; IV Argatroban 3 mg, 5 min): 30.1 s
PT LA ([6]; IV Argatroban 3 mg, 10 min): 22 s
PT LA ([6]; IV Argatroban 3 mg, 15 min): 18 s
PT LA ([6]; IV Argatroban 3 mg, 30 min): 11.5 s
PT LA ([6]; IV Argatroban 3 mg, 60 min): 7.9 s
PT LA ([6]; IV Argatroban 3 mg, 120 min): 6.7 s
PTCS [6, 10]: 6.5 s
PTCS ([6]; T Argatroban 5 mg, 3 min): 6.8 s
PTCS ([6]; T Argatroban 5 mg, 15 min): 8.9 s
PTCS ([6]; T Argatroban 5 mg, 60 min): 8.6 s
PT LA [6, 10]: 6.3 s
PT LA ([6]; T Argatroban 5 mg, 1 min): 6.7 s
PT LA ([6]; T Argatroban 5 mg, 3 min): 7 s
PT LA ([6]; T Argatroban 5 mg, 5 min): 7.2 s
PT LA ([6]; T Argatroban 5 mg, 10 min): 8.6 s
PT LA ([6]; T Argatroban 5 mg, 15 min): 10.4 s
PT LA ([6]; T Argatroban 5 mg, 30 min): 12 s
PT LA ([6]; T Argatroban 5 mg, 60 min): 8.1 s
PT LA ([6]; T Argatroban 5 mg, 120 min): 7.3 s

CCCCS(=O)(=O)N[C@@H](Cc1ccc(OCCCCC2CCNCC2)cc1)C(=O)O [Tirofiban]
Log P [7]: 1.4
aqueous solubility [7]: low

CO[C@H]1O[C@H](COS(=O)(=O)O)[C@@H](O[C@@H]2O[C@@H](C(=O)O)[C@@H](O[C@H]3O[C@H](COS(=O)(=O)O)[C@@H](O[C@@H]4O[C@H](C(=O)O)[C@@H](O[C@H]5O[C@H](COS(=O)(=O)O)[C@@H](OC)[C@H](OC)[C@H]5OC)[C@H](OC)[C@H]4OC)[C@H](OS(=O)(=O)O)[C@H]3OS(=O)(=O)O)[C@H](OC)[C@H]2OC)[C@H](OS(=O)(=O)O)[C@H]1OS(=O)(=O)O [idraparinux]
elimination half-life [8]: approximately 80 hours
elimination half-life relative to fondaparinux [8]: five to six times longer
